Row | SMILES | melting point
1 | CCCCc1nc2cccc(C(=O)OCCO)c2n1Cc1ccc(-c2ccccc2-c2nnn[nH]2)cc1 | 145 to 147 °C
2 | Cc1nc(NC(=O)NC(=O)c2c(F)cccc2F)ccc1-c1ccccc1 | 206 to 208 °C
3 | CS(=O)(=O)c1ccc(-c2cnn(-c3ccc(F)cc3F)c(=O)c2-c2ccc(F)cc2)cc1 | 245 to 247 °C
4 | COc1ccc(/C=C/C(=O)C#CC(=O)O)cc1 | 98 to 100 °C
5 | CCOC(=O)c1cn(CC)c2c(=O)c3cc(Cl)ccc3oc2c1=O | 257 to 259 °C
6 | CC(C)n1nc(-c2nc(C#N)c(N)nc2-c2ccccc2)ccc1=O | 231 to 233 °C
7 | CC(NC(Nc1cc(C(F)(F)F)cc(C(F)(F)F)c1)=C(C#N)S(C)(=O)=O)C(C)(C)C (configuration not stated) | 181 to 182 °C
8 | COc1ccc2ccc(N3C(=O)c4ccccc4C3OCC(=O)CC(C)C)nc2n1 (configuration not stated) | 120 °C
9 | CNC(=O)c1ccccc1C(O)(c1ccc(Cl)cc1)c1ccccc1CN(C)C (configuration not stated) | 154 to 156 °C
10 | COc1cc(F)ccc1-c1ccnc(NC(=O)[C@H]2CC[C@@H](NC(C)=O)C2)c1 | 125 to 129 °C
11 | COCc1c(I)cc(Cl)nc1OC | 69 to 72 °C
12 | CC(=O)Oc1ccc2cccc(OS(=O)(=O)C(F)(F)F)c2n1 | 90 °C
13 | CC(=O)Nc1cc2c(cc1Oc1ccc(F)cc1F)CCC2c1ccccc1 (configuration not stated) | 117 °C
14 | CC(=O)Oc1cc(C(=O)O)cc(C(=O)O)c1 | 240 °C
15 | CCOc1cc2cc(CO)cc(-c3ccnc(-n4nc(C)c5ccccc5c4=O)c3)c2cc1OCC | 220 to 221 °C
16 | COC(=O)C(=O)c1ccc(OCCOc2ccc([N+](=O)[O-])cc2)cc1 | 122 to 123 °C
17 | Cc1nc(Cl)c2ncn(-c3ccc(C(C)C)cc3Br)c2n1 | 49 to 52 °C
18 | CCn1nnc(-c2ccc(C(=O)N[C@@H]3CCCC[C@@H]3c3ccc(OC)c(OC)c3)cc2)n1 | 188 to 192 °C
19 | NC(=O)c1ccc(N2CCOCC2)cc1 | 220 to 221 °C
20 | CCOC(=O)c1sc2ccc(O)c(C=O)c2c1Cl | 128 to 130 °C
21 | Cc1cc(Nc2ccnc(Nc3ccc(S(=O)(=O)N(C)C4CCN(Cc5nccs5)CC4)cc3)n2)ccc1F | 176 to 177 °C
22 | CC(C)(C)c1nc2cc(N3CCN(S(C)(=O)=O)CC3)c([N+](=O)[O-])cc2s1 | 195 to 197 °C
23 | O=C(c1ccc(OC(F)(F)F)cc1)c1ccc(C(F)(F)F)cc1 | 61.5 to 62 °C
24 | CC(C)(C)OC(=O)Nc1ccc(-c2ccccc2F)cc1NC(=O)CC(=O)c1cccc(-n2ccnc2)c1 | 50 to 58 °C
25 | CCCCCCCCCCCCCCCC(=O)OC[C@H](O)COC(C)=O | 37 to 37.5 °C
26 | Cc1oc(-c2ccccc2)nc1C(C)O (configuration not stated) | 101 to 102 °C

Row | SMILES | melting point
27 | CC(=O)Nc1nc(CCc2ccc(CN3CCNCC3)cc2)cs1 | 164 to 166 °C
28 | CCCOC(=O)CCC(=O)c1ccc(-c2ccccc2F)cc1 | 53 to 54 °C
29 | COC(=O)c1ccc(-c2nc(-c3ccc(Cl)s3)co2)cc1 | 189 to 190 °C
30 | COc1cc2c(cc1OC)N(C)C(=O)CN=C2c1ccc(Cl)c(Cl)c1 | 174 to 177 °C
31 | CCOC(=O)c1cc(S)n2nc(C)nc2n1 | 234 to 236 °C
32 | CN(C)c1c(C#N)c(N)nn1C | 100 to 102 °C
33 | COc1ccc(C#N)c(F)c1OC(C)=O | 90 to 91 °C
34 | Cc1ccc(S(=O)(=O)N2[C@H](CCCO)CC[C@H]2c2ccc(F)cc2)cc1 | 96 °C
35 | CC(=O)Oc1ccc(-c2c(C)c3cccc(OC(C)=O)c3oc2=O)c(OC(C)=O)c1 | 119 to 120 °C
36 | CC1CCN(C(=O)Oc2ccc(Oc3ccccc3)cc2F)CC1 | 43 to 46 °C
37 | Cc1oc(-c2ccccc2)nc1CCOc1ccc(C=C2SC(=O)NC2=O)cc1 | 213 to 214 °C
38 | C=CCN(C)c1c(C=NO)c(=O)n(C)c(=O)n1C | 95.5 to 97.1 °C
39 | Cc1cc2cc(CN3CCC(C(=O)N(C)C)CC3)cnc2cc1NC(=O)c1ccc(-c2ccc(F)cc2)cc1 | 229 °C
40 | CC(=O)Nc1nc2c(ncn2CCC(CO)CO)c(=O)[nH]1 | 143 to 146 °C
41 | CN1C(=O)C(c2ccccc2)NC(=O)/C1=C/c1c[nH]c2ccccc12 (configuration not stated) | 120 to 123 °C
42 | O=C(NCc1ccccc1)C1(CCCc2ccccc2)c2ccccc2-c2ccccc21 | 94 °C
43 | O=C(c1ccc(F)cc1)c1nc[nH]n1 | 225 to 230 °C
44 | COc1ccc(C(=O)Nc2ccccc2)cc1NCc1cccc(C(=O)O)c1 | 210 to 212 °C
45 | O=C(NC(=O)c1c(F)cccc1F)Nc1ccc(C(F)(F)F)cc1F | 197 °C
46 | CC(C)C1(C)N=C(c2nc(O)ccc2C(=O)O)NC1=O (configuration not stated) | 201 to 203 °C
47 | COc1cc(C(=O)O)cc2c1C(=O)c1c(OC)ccc(OC)c1C2=O | 260 to 262 °C
48 | Oc1ncnc2nc(C(F)(F)F)ccc12 | 268 to 269 °C
49 | CCOC(=O)[C@H]1[C@@H]2C=CC(=O)[C@@H]21 (racemic) | 77 to 78 °C
50 | CS(=O)(=O)c1ccc(-c2cnn(-c3ccc(F)c(F)c3)c(=O)c2Oc2ccc(Cl)cc2)cc1 | 192 to 194 °C
51 | COc1ccc(N2C(=O)Cc3ccccc32)cc1 | 115 to 117 °C
52 | O=C1CC(S(=O)Cc2ccccc2)N1CCCc1ccccc1 (configuration not stated) | 93 to 96 °C

Row | SMILES | melting point
53 | CCCCC[C@H]1CC[C@H](c2cnc(-c3ccc(C#N)cc3)nc2)CC1 | 100 °C
54 | O=c1c(CCl)coc2c1COc1ccccc1-2 | 163 to 165 °C
55 | CC(=O)c1cc2c(c(Br)c1O)CCCC2 | 127 to 130 °C
56 | CCCCCCCCCCCCCCCCc1cc(-c2ccccn2)nc(-c2ccccn2)c1 | 97.5 to 99 °C
57 | O=C(O)c1ccc(-c2nnc(-c3ccc(C(F)(F)F)cc3)o2)c([N+](=O)[O-])c1 | 254 to 255 °C
58 | N#CCNS(=O)(=O)c1ccccc1 | 81 to 83 °C
59 | CCNC(=O)c1ccc(-c2cnc3c(c2)N(Cc2ccccc2)C(=O)CN3)cc1 | 195 °C
60 | CCOC(=O)C1=C(COCc2cccnc2)NC(COCc2cccnc2)=C(C(=O)OCC)C1c1ccccc1[N+](=O)[O-] | 142 to 145 °C
61 | COC(=O)CCc1ccc(N2CCN(C34CCC(C#N)(CC3)CC4)C2=O)cc1 | 195 to 197 °C
62 | Cc1cc(C)cc(C(=O)c2c(C(C)C)c(=O)[nH]c(=O)n2CC2=CC(CO)C(CO)C2)c1 (configuration not stated) | 81 to 82 °C
63 | COc1cc(Cl)c2ncccc2c1 | 74 to 75 °C
64 | Cc1ccc(NC(=O)c2cc(C#N)cc(C)n2)nc1 | 196 °C
65 | CCOC(=O)[C@H](CSCCc1ccccc1)NC(=O)C(CSC(C)=O)Cc1ccccc1 (some centres not stated) | 63 to 64 °C
66 | N#Cc1ccc(Cn2c(=O)sc3c(=O)[nH]c(N)nc32)cc1 | > 320 °C
67 | O=C(O)Cc1cn2ccccc2n1 | 205 to 208 °C
68 | CCCNCC1Cc2ccc(-c3ccc(=O)[nH]n3)cc2C1 (configuration not stated) | 144 to 146 °C
69 | O=[N+]([O-])c1cccc(-n2cnc3c([N+](=O)[O-])cccc32)c1 | 159 to 161 °C
70 | C[N+]([O-])=NNc1cccnc1 | 95 to 97 °C
71 | CC1CCC2=NNC(=O)CC2C1 (configuration not stated) | 116 to 118 °C
72 | CC(c1ccc(-c2ccccc2)c(F)c1)c1csc(NCCc2ccccc2)n1 (configuration not stated) | 74.5 to 75.5 °C
73 | Nc1ccc2c(c1)ncn2-c1ccccc1 | 272 to 274 °C
74 | O=Cc1ccc(-c2ncn(-c3ccc(OC(F)(F)F)cc3)n2)cc1 | 137 to 140 °C
75 | CCOC(=O)COc1cc(C)nc2c(OCc3c(Cl)ccc(N(C)C(=O)CNC(=O)C=Cc4ccc(C(=O)NC)cc4)c3Cl)cccc12 | 134 to 147 °C
76 | CCN1c2ncccc2C(NC)=Nc2c(C)cc(C)nc21 | 128 to 130 °C
77 | CCC(C)OC1OC(C(O)N(CC(C)C)C(=O)N(CCCl)N=O)C(O)C1O (configuration not stated) | 80 to 82 °C
78 | CCOC(=O)c1ccc(COc2ccc3c(c2)C(C)(C)CCC3(C)C)cc1 | 76 to 77 °C

Row | SMILES | melting point
79 | COc1cccc(-n2c(=O)n(O)c(=O)c3cc(F)c(N4CCCC4)cc32)c1 | 216 to 218 °C
80 | CC1=C(C(=O)NCc2ccncc2)SCN1n1ccc(O)cc1=O | 275 to 278 °C
81 | CCSc1ccc(N)c(C(=O)O)c1 | 97 to 100 °C
82 | CCS(=O)(=O)Nc1ccc(Cc2ccc(N)cc2)cc1 | 108 to 109 °C
83 | COc1ccc(OC(C)c2ccnc3ncnn23)cc1 (configuration not stated) | 112 to 114 °C
84 | COC(=O)Nc1ccc(OC)c(OC)c1 | 83 to 87 °C
85 | CCOC(=O)c1cnc2ccc(C)cc2c1O | > 260 °C
86 | Nc1nc(NCc2ccccc2)nc(-c2cc(Cl)ccc2Cl)n1 | 200 to 201 °C
87 | O=C(C1=C(c2ccc(O)cc2)CCc2ccccc21)c1ccc(OCCN2CCCCC2)cc1 | 83 to 85 °C
88 | CCCCc1nn(-c2cccc(NC(=O)CC)c2)c(=O)n1Cc1ccc(-c2ccccc2S(=O)(=O)NC(=O)c2ccccc2Cl)cc1 | 105 to 107 °C
89 | O=[N+]([O-])CS(=O)(=O)c1ccc(CO)cc1 | 73 to 75 °C
90 | c1ccc(-c2ncc(N3CCCC3CCCCOC3CCCCO3)nc2-c2ccccc2)cc1 (configuration not stated) | 94 to 96 °C
91 | COc1ccc(C(=O)OCCN2CCC(Nc3nc4ccccc4n3Cc3ccc(F)cc3)CC2)cc1 | 189 °C
92 | COc1ccc(CNc2nc(Cl)ncc2C(=O)c2ccccn2)cc1Cl | 117 to 119 °C
93 | Cc1c(NC(=O)c2ccc(-c3ccc(F)cc3)cc2)ccc2cc(CN3CCC(CC(N)=O)CC3)cnc12 | 258 to 260 °C
94 | Nc1ccc(C2=NNC(=O)Cc3cc4c(cc32)OCO4)c(Cl)c1 | 238 to 240 °C
95 | CN1CCN(C2=Nc3cc(Br)ccc3N3CCc4cc(Br)cc2c43)CC1 | 215 to 216 °C
96 | CCOCc1nc2c(N)nc(C)c(C)c2n1CCOCC#Cc1cncnc1 | 122 to 124 °C
97 | CC(O)CNCC(O)COc1ccccc1C#N (configuration not stated) | 108 °C
98 | Nc1ccc2c(c1)C(=O)N(CCO)CCO2 | 138 °C
99 | CCC(C)NC(=O)n1nc(Oc2c(Cl)cc(C(F)(F)F)cc2Cl)cc1C (configuration not stated) | 73 to 75 °C
100 | CCCSc1ncc(CC(NC(=O)c2ccccc2)C(=O)O)n1Cc1ccccc1Cl (configuration not stated) | 210 to 212 °C
101 | Cc1c(Cl)cncc1Cl | 46 to 47 °C
102 | CCCn1c(COCC)nc2c(N)nc3ccc(OCCCCCCNC(=O)C(C)C)cc3c21 | 136 to 138 °C

— a melting point compilation (Tetko et al.; mined from patent text by program, amines drawn as free bases though some values may be those of a salt)
